Source: PubChem BioAssay AID1259407 (Chemical Carcinogenesis Research Information System (CCRIS), 2018)
Activity calls are given as the source filed them. No rule for the calls is given here.

Tested on: CCRIS mutagenicity, Ames/micronucleus/aberration tests
Assay: CCRIS mutagenicity studies
[1] = Test System: AMES SALMONELLA TYPHIMURIUM, Strain/Indicator: TA98, Metabolic Activation: NONE, Method: PREINCUBATION
[2] = Test System: AMES SALMONELLA TYPHIMURIUM, Strain/Indicator: TA100, Metabolic Activation: NONE, Method: PREINCUBATION

## CCCCCCCCCCCCC1CCC1=O (stereo not given)
End Point: In vitro micronucleus, Test System: Human TK6 lymphoblasts, Metabolic Activation: None
  mutagenic call: active; positive (at highest dose)
End Point: In vitro micronucleus, Test System: Human TK6 lymphoblasts, Metabolic Activation: Rat, Liver, S-9, Aroclor (1%)
  mutagenic call: active; positive (at highest dose)
Test System: Ames Salmonella typhimurium, Strain/Indicator: TA98, Metabolic Activation: None, Method: Microtiter plate-based Miniscreen assay
  mutagenic call: inactive; negative
Test System: Ames Salmonella typhimurium, Strain/Indicator: TA98, Metabolic Activation: Rat, Liver, S-9, Aroclor 1254 (5%), Method: Microtiter plate-based Miniscreen assay
  mutagenic call: inactive; negative
Test System: Ames Salmonella typhimurium, Strain/Indicator: TA100, Metabolic Activation: None, Method: Microtiter plate-based Miniscreen assay
  mutagenic call: inactive; negative
Test System: Ames Salmonella typhimurium, Strain/Indicator: TA100, Metabolic Activation: Rat, Liver, S-9, Aroclor 1254 (5%), Method: Microtiter plate-based Miniscreen assay
  mutagenic call: inactive; negative
Test System: Ames Salmonella typhimurium, Strain/Indicator: TA1535, Metabolic Activation: None, Method: Microtiter plate-based Miniscreen assay
  mutagenic call: inactive; negative
Test System: Ames Salmonella typhimurium, Strain/Indicator: TA1535, Metabolic Activation: Rat, Liver, S-9, Aroclor 1254 (5%), Method: Microtiter plate-based Miniscreen assay
  mutagenic call: inactive; negative
Test System: Ames Salmonella typhimurium, Strain/Indicator: TA1537, Metabolic Activation: None, Method: Microtiter plate-based Miniscreen assay
  mutagenic call: inactive; negative
Test System: Ames Salmonella typhimurium, Strain/Indicator: TA1537, Metabolic Activation: Rat, Liver, S-9, Aroclor 1254 (5%), Method: Microtiter plate-based Miniscreen assay
  mutagenic call: inactive; negative

## O=c1c2c(O)cccc2oc2cc3c(c(O)c12)[C@@H]1C=CO[C@@H]1O3
Test System: AMES SALMONELLA TYPHIMURIUM, Strain/Indicator: TA98, Metabolic Activation: RAT, LIVER, S-9, PHENOBARBITAL, Method: STANDARD PLATE
  mutagenic call: inactive; negative
Test System: AMES SALMONELLA TYPHIMURIUM, Strain/Indicator: TA100, Metabolic Activation: RAT, LIVER, S-9, PHENOBARBITAL, Method: STANDARD PLATE
  mutagenic call: inactive; negative

## C[CH2][Ge]([Cl])([CH2]C)[CH2]C
Test System: AMES SALMONELLA TYPHIMURIUM, Strain/Indicator: TA98, Metabolic Activation: HAMSTER, LIVER, S-9, AROCLOR 1254 (10%), Method: STANDARD PLATE
  mutagenic call: inactive; negative
Test System: AMES SALMONELLA TYPHIMURIUM, Strain/Indicator: TA98, Metabolic Activation: NONE, Method: STANDARD PLATE
  mutagenic call: inactive; negative
Test System: AMES SALMONELLA TYPHIMURIUM, Strain/Indicator: TA98, Metabolic Activation: RAT, LIVER, S-9, AROCLOR 1254 (10%), Method: STANDARD PLATE
  mutagenic call: inactive; negative
Test System: AMES SALMONELLA TYPHIMURIUM, Strain/Indicator: TA100, Metabolic Activation: HAMSTER, LIVER, S-9, AROCLOR 1254 (10%), Method: STANDARD PLATE
  mutagenic call: inactive; negative
Test System: AMES SALMONELLA TYPHIMURIUM, Strain/Indicator: TA100, Metabolic Activation: NONE, Method: STANDARD PLATE
  mutagenic call: inactive; negative
Test System: AMES SALMONELLA TYPHIMURIUM, Strain/Indicator: TA100, Metabolic Activation: RAT, LIVER, S-9, AROCLOR 1254 (10%), Method: STANDARD PLATE
  mutagenic call: inactive; negative
Test System: AMES SALMONELLA TYPHIMURIUM, Strain/Indicator: TA1535, Metabolic Activation: HAMSTER, LIVER, S-9, AROCLOR 1254 (10%), Method: STANDARD PLATE
  mutagenic call: inactive; negative
Test System: AMES SALMONELLA TYPHIMURIUM, Strain/Indicator: TA1535, Metabolic Activation: NONE, Method: STANDARD PLATE
  mutagenic call: inactive; negative
Test System: AMES SALMONELLA TYPHIMURIUM, Strain/Indicator: TA1535, Metabolic Activation: RAT, LIVER, S-9, AROCLOR 1254 (10%), Method: STANDARD PLATE
  mutagenic call: inactive; negative
Test System: AMES SALMONELLA TYPHIMURIUM, Strain/Indicator: TA1537, Metabolic Activation: HAMSTER, LIVER, S-9, AROCLOR 1254 (10%), Method: STANDARD PLATE
  mutagenic call: inactive; negative
Test System: AMES SALMONELLA TYPHIMURIUM, Strain/Indicator: TA1537, Metabolic Activation: NONE, Method: STANDARD PLATE
  mutagenic call: inactive; negative
Test System: AMES SALMONELLA TYPHIMURIUM, Strain/Indicator: TA1537, Metabolic Activation: RAT, LIVER, S-9, AROCLOR 1254 (10%), Method: STANDARD PLATE
  mutagenic call: inactive; negative
Test System: AMES SALMONELLA TYPHIMURIUM, Strain/Indicator: TA1538, Metabolic Activation: HAMSTER, LIVER, S-9, AROCLOR 1254 (10%), Method: STANDARD PLATE
  mutagenic call: inactive; negative
Test System: AMES SALMONELLA TYPHIMURIUM, Strain/Indicator: TA1538, Metabolic Activation: NONE, Method: STANDARD PLATE
  mutagenic call: inactive; negative
Test System: AMES SALMONELLA TYPHIMURIUM, Strain/Indicator: TA1538, Metabolic Activation: RAT, LIVER, S-9, AROCLOR 1254 (10%), Method: STANDARD PLATE
  mutagenic call: inactive; negative
Test System: MOUSE LYMPHOMA, Strain/Indicator: L5178Y (TK+/TK-), Metabolic Activation: NONE, Method: SUSPENSION/PLATE
  mutagenic call: inactive; negative. reevaluation of results: inconclusive
Test System: MOUSE LYMPHOMA, Strain/Indicator: L5178Y (TK+/TK-), Metabolic Activation: RAT, LIVER, S-9, AROCLOR 1254, Method: SUSPENSION/PLATE
  mutagenic call: inactive; negative. reevaluation of results: negative

## CCCCCCCCCCCCCCCC(=O)OCC1(O)CC23CC[C@@H]4c5ccoc5C=CC4(C)C2CCC1C3 (stereo not given in full)
Test System: AMES SALMONELLA TYPHIMURIUM, Strain/Indicator: TM677, Metabolic Activation: NONE, Method: PREINCUBATION
  mutagenic call: inactive; negative
Test System: AMES SALMONELLA TYPHIMURIUM, Strain/Indicator: TM677, Metabolic Activation: RAT, LIVER, S-9, AROCLOR 1254, Method: PREINCUBATION
  mutagenic call: inactive; negative

## [Cl][Sn]([Cl])([c]1ccccc1)[c]1ccccc1
Test System: AMES SALMONELLA TYPHIMURIUM, Strain/Indicator: TA98, Metabolic Activation: NONE, Method: SUSPENSION/PLATE
  mutagenic call: inactive; negative
Test System: AMES SALMONELLA TYPHIMURIUM, Strain/Indicator: TA100, Metabolic Activation: NONE, Method: SUSPENSION/PLATE
  mutagenic call: inactive; negative

## O=[N+]([O-])c1ccc(Br)cc1
End Point: IN VITRO CHROMOSOMAL ABERRATIONS, Test System: HUMAN PERIPHERAL LYMPHOCYTES, Metabolic Activation: NONE
  mutagenic call: inactive; negative
[1]
  mutagenic call: inactive; negative
Test System: AMES SALMONELLA TYPHIMURIUM, Strain/Indicator: TA98, Metabolic Activation: RAT, LIVER, S-9, KANECHLOR 500, Method: PREINCUBATION
  mutagenic call: inactive; negative
[2]
  mutagenic call: inactive; negative
Test System: AMES SALMONELLA TYPHIMURIUM, Strain/Indicator: TA100, Metabolic Activation: RAT, LIVER, S-9, KANECHLOR 500, Method: PREINCUBATION
  mutagenic call: active; positive

## Nc1cc(S(=O)(=O)O)cc2cc(S(=O)(=O)O)cc(O)c12
[1]
  mutagenic call: inactive; negative
Test System: AMES SALMONELLA TYPHIMURIUM, Strain/Indicator: TA98, Metabolic Activation: RAT LIVER S-9, PHENOBARBITAL AND BETA-NAPHTHOFLAVONE, Method: PREINCUBATION
  mutagenic call: inactive; negative
[2]
  mutagenic call: inactive; negative
Test System: AMES SALMONELLA TYPHIMURIUM, Strain/Indicator: TA100, Metabolic Activation: RAT LIVER S-9, PHENOBARBITAL AND BETA-NAPHTHOFLAVONE, Method: PREINCUBATION
  mutagenic call: inactive; negative
Test System: AMES SALMONELLA TYPHIMURIUM, Strain/Indicator: TA1535, Metabolic Activation: NONE, Method: PREINCUBATION
  mutagenic call: inactive; negative
Test System: AMES SALMONELLA TYPHIMURIUM, Strain/Indicator: TA1535, Metabolic Activation: RAT LIVER S-9, PHENOBARBITAL AND BETA-NAPHTHOFLAVONE, Method: PREINCUBATION
  mutagenic call: inactive; negative
Test System: AMES SALMONELLA TYPHIMURIUM, Strain/Indicator: TA1537, Metabolic Activation: NONE, Method: PREINCUBATION
  mutagenic call: inactive; negative
Test System: AMES SALMONELLA TYPHIMURIUM, Strain/Indicator: TA1537, Metabolic Activation: RAT LIVER S-9, PHENOBARBITAL AND BETA-NAPHTHOFLAVONE, Method: PREINCUBATION
  mutagenic call: inactive; negative
Test System: AMES SALMONELLA TYPHIMURIUM, Strain/Indicator: TA1538, Metabolic Activation: NONE, Method: PREINCUBATION
  mutagenic call: inactive; negative
Test System: AMES SALMONELLA TYPHIMURIUM, Strain/Indicator: TA1538, Metabolic Activation: RAT LIVER S-9, PHENOBARBITAL AND BETA-NAPHTHOFLAVONE, Method: PREINCUBATION
  mutagenic call: inactive; negative
Test System: E.COLI, Strain/Indicator: WP2UVRA, Metabolic Activation: NONE, Method: PREINCUBATION
  mutagenic call: inactive; negative
Test System: E.COLI, Strain/Indicator: WP2UVRA, Metabolic Activation: RAT LIVER S-9, PHENOBARBITAL AND BETA-NAPHTHOFLAVONE, Method: PREINCUBATION
  mutagenic call: inactive; negative
